{"source": "paper PMC4933954", "about": "“Navigation in bile acid chemical space: discovery of novel FXR and GPBAR1 ligands” (Scientific Reports, 2016)", "key": {"[1]": {"test_system": "animal models of non-obstructive cholestasis", "set-up": "method as in PMID 26177448", "settings": "cited from earlier work"}, "PBC patients": {"test_system": "PBC patients", "set-up": "method as in PMID 25500425", "settings": "cited from earlier work"}, "human GPBAR1": {"target": "T1, human GPBAR1 (Homo sapiens, UniProt Q8TDU6)", "T1 construct": "expressed in transfected cells; host or cells: HEK-293T", "T1 sequence (Q8TDU6 1-330)": "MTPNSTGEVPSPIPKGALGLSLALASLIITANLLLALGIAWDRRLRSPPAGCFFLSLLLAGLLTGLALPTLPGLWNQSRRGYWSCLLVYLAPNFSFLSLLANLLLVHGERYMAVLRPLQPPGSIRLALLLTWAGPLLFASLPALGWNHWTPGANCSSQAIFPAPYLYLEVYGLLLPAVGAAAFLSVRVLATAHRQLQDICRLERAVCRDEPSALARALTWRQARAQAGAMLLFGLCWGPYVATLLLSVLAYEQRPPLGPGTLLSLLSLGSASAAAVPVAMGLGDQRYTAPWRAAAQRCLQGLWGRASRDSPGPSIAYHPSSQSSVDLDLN", "experiment": "GPBAR1 transactivation (cAMP responsive element luciferase reporter) in transfected HEK-293T cells", "type": "cell-based", "settings": "for EC50: HEK-293T cells transfected with GPBAR1, concentration-response, mean ± standard error", "text": "Luciferase activities were normalized with Renilla activities."}, "[2]": {"target": "T2, GST-fusion FXR-LBD / SRC-1 peptide (Homo sapiens, UniProt Q96RI1)", "T2 construct": "10 nM of purified GST-tagged FXR-LBD protein", "T2 sequence (Q96RI1 262-486 limits assumed)": "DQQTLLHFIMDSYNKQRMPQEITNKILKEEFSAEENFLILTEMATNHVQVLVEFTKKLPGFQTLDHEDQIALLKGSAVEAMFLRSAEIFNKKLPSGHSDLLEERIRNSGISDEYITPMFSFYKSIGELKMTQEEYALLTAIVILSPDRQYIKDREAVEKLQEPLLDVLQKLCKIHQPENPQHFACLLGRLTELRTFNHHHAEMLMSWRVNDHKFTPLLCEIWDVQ", "T2 sequence (Q15788 676-700 partner limits assumed)": "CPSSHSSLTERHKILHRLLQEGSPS", "experiment": "Alpha screen coactivator recruitment assay, direct interaction of FXR with SRC-1", "type": "biochemical", "settings": "ligands at 2 μM, effect of 6-ECDCA (3) settled as 100%", "procedure": "CDCA (1) and 6-ECDCA (3) were used as positive controls at 2 μM concentration and the effect of 6-ECDCA (3) was settled as 100%. […] Results are expressed as percentage of the effect of 3 arbitrarily settled as 100%. NT is referred to the experiment in absence of ligand. […] (B,C) Real-time PCR analysis of mRNA expression on FXR target genes BSEP (B), and OSTα (C) in HepG2 cells primed with 10 μM of compound 19. CDCA (1) was used as a positive control at 10 μM. (D) Real-time PCR analysis of mRNA expression of GPBAR1 target gene Pro-glucagon in GLUTAg cells stimulated with 10 μM of compounds 7 and 19, and TLCA (2) used as a positive control at 10 μM. Values are normalized to GAPDH and are expressed relative to those of not treated cells (NT) which are arbitrarily settled to 1. The relative mRNA expression is expressed as 2(-ΔΔCt). Anti-GST-coated acceptor beads were used to capture the GST-fusion FXR-LBD whereas the biotinylated-SRC-1 peptide was captured by the streptavidin donor beads. Upon illumination at 680 nm, chemical energy is transferred from donor to acceptor beads across the complex streptavidin-Donor/Src-1-Biotin/[…]-LBD/Anti-GST-Acceptor and a signal is produced. The assay was performed in white, low-volume, 384-well Optiplates (PerkinElmer) using a final volume of 25 μL containing final concentrations of 10 nM of purified GST-tagged FXR-LBD protein, 30 nM biotinylated Src-1 peptide, 20 μg/mL anti-GST acceptor beads acceptor beads and 10 μg/mL of streptavidin donor bead (PerkinElmer). The assay buffer contained 50 mM Tris (pH 7.4), 50 mM KCl, 0.1% BSA, and 1 mM DTT. The stimulation times with 1 μL of tested compound (dissolved in 50% DMSO/H2O) were fixed to 30 min at room temperature. The concentration of DMSO in each well was maintained at a final concentration of […]. After the addition of the detection mix (acceptor and donor beads) the plates were incubated in the dark for 4 h at room temperature and then were read in Envision microplate analyzer (PerkinElmer)."}, "[3]": {"test_system": "FXR target genes BSEP and OSTα in HepG2 cells", "experiment": "Real-time PCR of FXR target genes BSEP and OSTα in HepG2 cells", "type": "cell-based, human", "settings": "10 μM, relative to not treated cells", "procedure": "(§1) Figure 10 (A) Coactivator recruitment assay measuring a direct interaction of FXR with SRC-1; ligands at 2 μM. Results are expressed as percentage of the effect of 3 arbitrarily settled as 100%. NT is referred to the experiment in absence of ligand. […] (B,C) Real-time PCR analysis of mRNA expression on FXR target genes BSEP (B), and OSTα (C) in HepG2 cells primed with 10 μM of compound 19. CDCA (1) was used as a positive control at 10 μM. (D) Real-time PCR analysis of mRNA expression of GPBAR1 target gene Pro-glucagon in GLUTAg cells stimulated with 10 μM of compounds 7 and 19, and TLCA (2) used as a positive control at 10 μM. Values are normalized to GAPDH and are expressed relative to those of not treated cells (NT) which are arbitrarily settled to 1. The relative mRNA expression is expressed as 2(−ΔΔCt).\n(§2) Total RNA was isolated from HepG2 or GLUTAg cells using the TRIzol reagent according to the manufacturer’s specifications (Invitrogen). One microgram of purified RNA was treated with DNase-I and reverse transcribed with Superscript II (Invitrogen). For Real Time PCR, 10 ng template was dissolved in 25 μL containing 200 nmol/L of each primer and 12.5 μL of 2 × SYBR FAST Universal ready mix (Invitrogen). […] The relative mRNA expression was calculated and expressed as 2-(ΔΔCt). […]"}, "[4]": {"test_system": "GPBAR1 target gene Pro-glucagon in GLUTAg cells", "experiment": "Real-time PCR of GPBAR1 target gene Pro-glucagon in GLUTAg cells", "type": "cell-based, mouse", "settings": "10 μM, relative to not treated cells", "procedure": "as §1, §2"}, "FXR [5]": {"target": "T3, FXR (Homo sapiens, UniProt Q96RI1)", "T3 sequence (Q96RI1 1-486)": "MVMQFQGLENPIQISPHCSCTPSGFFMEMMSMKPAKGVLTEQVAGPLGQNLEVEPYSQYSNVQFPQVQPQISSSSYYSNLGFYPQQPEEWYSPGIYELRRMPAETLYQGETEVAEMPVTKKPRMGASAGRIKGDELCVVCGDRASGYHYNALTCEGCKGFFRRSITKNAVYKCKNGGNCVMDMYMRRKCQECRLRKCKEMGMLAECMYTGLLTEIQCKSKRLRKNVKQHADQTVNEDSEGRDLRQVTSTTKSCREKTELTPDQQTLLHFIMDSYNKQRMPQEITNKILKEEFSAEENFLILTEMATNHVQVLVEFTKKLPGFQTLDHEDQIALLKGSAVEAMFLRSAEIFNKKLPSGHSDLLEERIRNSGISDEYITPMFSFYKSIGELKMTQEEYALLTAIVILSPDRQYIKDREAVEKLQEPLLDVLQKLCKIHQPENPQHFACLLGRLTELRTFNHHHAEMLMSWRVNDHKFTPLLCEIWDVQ", "T3 sequence (P19793 1-462 partner)": "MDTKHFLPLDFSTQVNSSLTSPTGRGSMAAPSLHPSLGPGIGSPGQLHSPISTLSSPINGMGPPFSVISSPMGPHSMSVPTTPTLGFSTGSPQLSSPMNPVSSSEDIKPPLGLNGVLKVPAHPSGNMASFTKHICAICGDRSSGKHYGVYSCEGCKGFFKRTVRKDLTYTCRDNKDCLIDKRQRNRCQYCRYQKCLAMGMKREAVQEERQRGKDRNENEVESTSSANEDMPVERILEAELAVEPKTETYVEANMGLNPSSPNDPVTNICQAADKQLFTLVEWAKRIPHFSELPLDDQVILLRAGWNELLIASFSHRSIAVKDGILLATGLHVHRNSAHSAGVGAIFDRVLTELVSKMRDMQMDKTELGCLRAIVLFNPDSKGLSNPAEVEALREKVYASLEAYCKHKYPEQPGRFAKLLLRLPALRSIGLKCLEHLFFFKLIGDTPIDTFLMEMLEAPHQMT", "experiment": "FXR transactivation luciferase reporter assay in transfected HepG2 cells", "settings": "HepG2 cells transfected with FXR; for EC50: EC50 FXR transactivation, 100 nM to 25 μM, mean ± standard error", "experimental": "(A) HepG2 cells were transfected with pSG5-FXR, pSG5-RXR, pCMV-βgal, and p(hsp27)TKLUC vectors. […] CDCA (1, 10 μM) and 6-ECDCA (3, 1 μM) were used as a positive control. […] Cells were stimulated with 7–19 (10 μM). […] In both panels, results are expressed as mean ± standard error. *p < 0.05 versus not treated cells (NT).\nHepG2 cells were transfected with FXR as described above and used in a luciferase reporter assay. […] Results are expressed as mean ± standard error.\nFor FXR and GP BAR1 mediated transactivations, HepG2 cells and HEK293T cells were transfected as described previously[25]. […] After treatments, 20 μL of cellular lysates were read using Dual Luciferase Reporter Assay System (Promega Italia s.r.l., Milan, Italy) according manufacturer specifications using the Glomax 20/20 luminometer (Promega Italia s.r.l., Milan, Italy). […] At 18 h post stimulations, cellular lysates were assayed for luciferase and Renilla activities using the Dual-Luciferase Reporter assay system (E1980, Promega). Luminescence was measured using Glomax 20/20 luminometer (Promega). Luciferase activities were normalized with Renilla activities."}, "GPBAR1": {"test_system": "GPBAR1", "set-up": "method as in PMID 25247751", "settings": "cited from earlier work"}, "FXR [6]": {"target": "T3, FXR", "set-up": "method as in PMID 25247751", "settings": "any concentration tested; cited from earlier work"}, "[7]": {"test_system": "rodent models of portal hypertension", "set-up": "method as in PMID 26539823", "settings": "cited from earlier work"}}, "note": "Values joined by “and” are separate entries in the source; they are usually repeats but may differ in a detail not shown here. Identical values can stand only once."}
{"smiles": "CC[C@H]1[C@@H](O)[C@@H]2[C@H](CC[C@]3(C)[C@@H]([C@H](C)CCO)CC[C@@H]23)[C@@]2(C)CC[C@@H](O)C[C@@H]12", "note": "[compound 5]", "values": [{"measurement": "Liver damage and itching", "setting": "[1]", "result": "attenuates liver damage in animal models of non-obstructive cholestasis without inducing itching"}]}
{"smiles": "CC[C@H]1[C@@H](O)[C@@H]2[C@H](CC[C@]3(C)[C@@H]([C@H](C)CCC(=O)O)CC[C@@H]23)[C@@]2(C)CC[C@@H](O)C[C@@H]12", "note": "[6-ECDCA/OCA, 6-ECDCA]", "values": [{"measurement": "Patients who experienced the symptoms (pruritus)", "setting": "PBC patients", "result": "approx. 80%"}, {"measurement": "PBC patients who halted the treatment due to the severity of itching", "setting": "PBC patients; one trial", "result": "up to 40%"}]}
{"smiles": "CCC1C(O)C2C3CCC(C(C)CCCCCOS(=O)(=O)O)C3(C)CCC2C2(C)CCC(O)CC12", "note": "(stereo not drawn) [compound 19]", "values": [{"measurement": "EC50", "setting": "human GPBAR1", "result": 950, "unit": "nM"}, {"measurement": "Recruitment of SRC-1 co-activator to FXR", "setting": "[2]", "result": "at least comparable, if not better, to that measured for 3"}, {"measurement": "BSEP mRNA upregulation", "setting": "[3]", "result": 2, "unit": "fold"}, {"measurement": "OSTα mRNA expression", "setting": "[3]", "result": "robust induction of OSTα mRNA"}, {"measurement": "Pro-glucagon gene expression", "setting": "[4]", "result": "increased pro-glucagon gene expression"}, {"measurement": "EC50", "setting": "FXR [5]", "result": 1700, "unit": "nM"}, {"measurement": "FXR transactivation (luciferase reporter)", "setting": "FXR [5]; compounds at 10 μM", "result": "the most potent FXR agonist generated in this study"}]}
{"smiles": "CCC1C(O)C2C3CCC(C(C)CC(=O)O)C3(C)CCC2C2(C)CCCCC12", "note": "(stereo not drawn) [compound 13]", "values": [{"measurement": "EC50", "setting": "human GPBAR1", "result": 4300, "unit": "nM"}, {"measurement": "EC50", "setting": "FXR [5]", "result": "2300 nM and 2320 nM"}]}
{"smiles": "C/C=C1/[C@H](O)C2C3CC[C@H]([C@H](C)CCO)[C@@]3(C)CCC2[C@@]2(C)CC[C@@H](O)C[C@@H]12", "note": "(stereo partly drawn) [compound 10]", "values": [{"measurement": "Recruitment of SRC-1 co-activator to FXR", "setting": "[2]", "result": "completely unable to recruit SRC-1"}]}
{"smiles": "CC[C@@H]1[C@H](O)[C@@H]2[C@H](CC[C@]3(C)[C@@H]([C@H](C)CCCO)CC[C@@H]23)[C@@]2(C)CC[C@@H](O)C[C@@H]12", "note": "[compound 6, EUDCOH]", "values": [{"measurement": "EC50", "setting": "GPBAR1", "result": 1030, "unit": "nM"}, {"measurement": "FXR transactivation", "setting": "FXR [6]", "result": "failing in transactivating FXR at any concentration tested"}, {"measurement": "Portal pressure", "setting": "[7]", "result": "exerts portal pressure-lowering effects"}]}
{"smiles": "CC[C@@H]1[C@@H](O)C2C3CC[C@H]([C@H](C)CCO)[C@@]3(C)CCC2[C@@]2(C)CC[C@@H](O)C[C@@H]12", "note": "(stereo partly drawn) [compound 9]", "values": [{"measurement": "Recruitment of SRC-1 co-activator to FXR", "setting": "[2]", "result": "completely unable to recruit SRC-1"}]}
{"smiles": "CCC1C(O)C2C3CCC(C(C)CCO)C3(C)CCC2C2(C)CCC(O)CC12", "note": "(stereo not drawn) [compound 7]", "values": [{"measurement": "GPBAR1 potency compared with TLCA (2)", "setting": "human GPBAR1; HEK-293T cells transfected with GPBAR1, 10 μM", "result": "potency similar to that of TLCA"}, {"measurement": "GPBAR1 transactivation (cAMP-luciferase reporter gene)", "setting": "human GPBAR1; HEK-293T cells transfected with GPBAR1, compounds at 10 μM", "result": "inducers of cAMP-luciferase reporter gene"}, {"measurement": "EC50", "setting": "human GPBAR1", "result": 910, "unit": "nM"}, {"measurement": "Recruitment of SRC-1 co-activator to FXR", "setting": "[2]", "result": "completely unable to recruit SRC-1"}, {"measurement": "Pro-glucagon gene expression", "setting": "[4]", "result": "increased pro-glucagon gene expression"}]}
{"smiles": "CCC1C(O)C2C3CCC(C(C)CCO)C3(C)CCC2C2(C)CCC(O)CC12", "note": "(stereo not drawn) [compound 14]", "values": [{"measurement": "EC50", "setting": "human GPBAR1", "result": "1000 nM and 1020 nM"}, {"measurement": "EC50", "setting": "FXR [5]", "result": 5300, "unit": "nM"}]}
